Data set [1] is described as follows: Relative solubility by turbidity in aqueous buffers (pH 1.5, 4.5, 6.8, 7.4). It counts as physicochemical. Conditions: for turbidity threshold (L, M, H) 1.4: pH 1.5 (SGF); for turbidity threshold (L, M, H) 4.5: pH 4.5 (SIF); for turbidity threshold (L, M, H) 6.8: pH 6.8 (SIF); for turbidity threshold (L, M, H) 7.4: pH 7.4 (HEPES). In a few lines:
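Reported value: concentration at which optical density at 490, 535 and 650 nm passes 0.01, taken as the mean of the three wavelengths. Buffers were 0.5M NaCl pH 1.5, 0.05M NaH2PO4 pH 4.5 or 6.8, and 10 mM HEPES/150 mM NaCl pH 7.4, each receiving serial 1:1 DMSO dilutions of a 25 mM stock.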

The target of a further data set is CYP3A4(BQ) (Homo sapiens, UniProt P08684). Nature of the data set: CYP3A4(BQ) inhibition. It counts as in vitro ADME. Conditions: CYP3A4, substrate BQ; read-out: Cyp IC50 3A4(BQ). In short, it runs like this: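 After 30 min incubation at 37° C, plates were read on a Tecan Safire 2 at 409 ex/460 em, and IC50 values came from signal plotted against compound concentration. Enzyme and substrate were sourced from BD Biosciences. The cofactor mix held 1.3% NADPH Regeneration system Solution A, 1.04% Solution B, 5% acetonitrile and 0.05% DMSO.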
Sequence of CYP3A4(BQ) (P08684 whole entry): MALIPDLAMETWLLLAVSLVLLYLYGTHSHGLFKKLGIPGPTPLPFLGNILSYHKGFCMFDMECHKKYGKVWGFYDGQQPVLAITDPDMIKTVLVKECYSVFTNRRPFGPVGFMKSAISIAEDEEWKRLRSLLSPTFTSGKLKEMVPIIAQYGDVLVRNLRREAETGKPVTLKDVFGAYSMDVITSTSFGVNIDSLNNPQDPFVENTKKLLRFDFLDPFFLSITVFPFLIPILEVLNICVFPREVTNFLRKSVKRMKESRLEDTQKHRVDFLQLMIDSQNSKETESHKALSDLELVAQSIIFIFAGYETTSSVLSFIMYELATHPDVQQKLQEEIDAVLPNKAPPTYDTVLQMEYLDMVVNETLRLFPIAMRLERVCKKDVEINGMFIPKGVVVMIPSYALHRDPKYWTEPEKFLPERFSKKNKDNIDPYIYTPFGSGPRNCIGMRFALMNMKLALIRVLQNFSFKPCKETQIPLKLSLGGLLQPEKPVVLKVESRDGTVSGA

The target in another data set is c-Kit kinase (Homo sapiens, UniProt P10721). Nature of the data set: c-Kit kinase biochemical activity assay (AlphaScreen, biotin-(E4Y)10 phosphorylation). The settings on record: 100 μM ATP; read-out: Biochemical Inhibition IC50 Kit. In a few lines: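 AlphaScreen read-out (streptavidin donor, anti-phosphotyrosine PY20 acceptor beads, EDTA stop) of c-Kit activity. Reaction: 0.75 ng kinase, 100 µM ATP, 30 nM biotin-(E4Y)10, 25 mM HEPES pH 7.5, 2 mM MgCl2, 2 mM MnCl2, 5% DMSO, 1 h room temperature. IC50 derived over an 8-point, two-fold dilution series.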
Sequence of c-Kit kinase (P10721 26-976): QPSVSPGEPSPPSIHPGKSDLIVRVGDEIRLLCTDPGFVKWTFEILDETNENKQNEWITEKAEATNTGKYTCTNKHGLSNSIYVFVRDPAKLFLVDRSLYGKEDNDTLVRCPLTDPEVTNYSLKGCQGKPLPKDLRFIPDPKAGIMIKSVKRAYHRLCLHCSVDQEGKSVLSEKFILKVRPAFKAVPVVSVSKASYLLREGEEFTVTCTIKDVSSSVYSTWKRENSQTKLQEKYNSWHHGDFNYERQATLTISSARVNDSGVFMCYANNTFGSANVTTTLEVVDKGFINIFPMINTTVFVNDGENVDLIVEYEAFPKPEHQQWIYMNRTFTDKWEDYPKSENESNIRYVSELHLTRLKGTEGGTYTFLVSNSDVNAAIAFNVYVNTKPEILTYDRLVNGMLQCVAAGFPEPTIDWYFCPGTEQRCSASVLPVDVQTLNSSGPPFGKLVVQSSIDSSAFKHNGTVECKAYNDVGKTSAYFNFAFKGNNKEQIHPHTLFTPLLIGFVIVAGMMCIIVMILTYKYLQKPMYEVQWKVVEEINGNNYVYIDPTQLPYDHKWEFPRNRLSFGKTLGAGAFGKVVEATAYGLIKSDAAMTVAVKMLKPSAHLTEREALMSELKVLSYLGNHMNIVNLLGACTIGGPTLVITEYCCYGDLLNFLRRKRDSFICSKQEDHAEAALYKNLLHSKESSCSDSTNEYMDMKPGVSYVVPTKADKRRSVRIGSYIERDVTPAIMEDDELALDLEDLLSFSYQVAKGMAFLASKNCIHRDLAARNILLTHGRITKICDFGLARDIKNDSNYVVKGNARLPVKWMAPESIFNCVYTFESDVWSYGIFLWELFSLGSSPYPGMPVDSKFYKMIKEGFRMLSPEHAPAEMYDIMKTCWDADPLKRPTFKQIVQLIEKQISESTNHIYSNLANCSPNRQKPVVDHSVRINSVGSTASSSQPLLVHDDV
(Alpha assays give light when donor and acceptor beads are brought close together.)

As to `CCc1ccc(Nc2ccc(C(=O)c3c[nH]c4ncnc(NCC5CC5)c34)c(F)n2)cn1` [Compound P-4118, [4-(cyclopropylmethylamino)-7H-pyrrolo[2,3-d]pyrimidin-5-yl]-[6-[(6-ethyl-3-pyridyl)amino]-2-fluoro-3-pyridyl]methanone], in data set [1], the “turbidity threshold (L, M, H) 1.4” value was “H (high solubility if the threshold concentration is >250 μm)”; the “turbidity threshold (L, M, H) 4.5” value was “M (moderate solubility if the threshold concentration is 31.3 μM to 250 μM)”; the “turbidity threshold (L, M, H) 6.8” value is “M (moderate solubility if the threshold concentration is 31.3 μM to 250 μM)”; the “turbidity threshold (L, M, H) 7.4” value is recorded as “L (low solubility if the threshold concentration is <31.3 μM)”. Further, the IC50 on CYP3A4(BQ) was more than 10 µM. For the same compound, the IC50 at c-Kit kinase was less than 0.1 µM.

For `CCc1ccc(Nc2ccc(C(=O)c3c[nH]c4ncnc(NCCOC)c34)c(F)n2)cn1` [Compound P-4119, [6-[(6-ethyl-3-pyridyl)amino]-2-fluoro-3-pyridyl]-[4-(2-methoxyethylamino)-7H-pyrrolo[2,3-d]pyrimidin-5-yl]methanone], in data set [1], the “turbidity threshold (L, M, H) 1.4” value is listed as “H (high solubility if the threshold concentration is >250 μm)”; the “turbidity threshold (L, M, H) 4.5” value is “M (moderate solubility if the threshold concentration is 31.3 μM to 250 μM)”; the “turbidity threshold (L, M, H) 6.8” value is reported as “M (moderate solubility if the threshold concentration is 31.3 μM to 250 μM)”; the “turbidity threshold (L, M, H) 7.4” value was “L (low solubility if the threshold concentration is <31.3 μM)”. In addition, at CYP3A4(BQ), the half-inhibitory concentration (IC50) was more than 10 µM. Further, the IC50 on c-Kit kinase was less than 0.01 µM.

As for `CCc1ccc(Nc2ccc(C(=O)c3c[nH]c4ncnc(NCC(F)(F)F)c34)c(F)n2)cn1` [Compound P-4120, [6-[(6-ethyl-3-pyridyl)amino]-2-fluoro-3-pyridyl]-[4-(2,2,2-trifluoroethylamino)-7H-pyrrolo[2,3-d]pyrimidin-5-yl]methanone], in data set [1], the “turbidity threshold (L, M, H) 1.4” value is “L (low solubility if the threshold concentration is <31.3 μM)”; the “turbidity threshold (L, M, H) 4.5” value is given as “M (moderate solubility if the threshold concentration is 31.3 μM to 250 μM)”; the “turbidity threshold (L, M, H) 6.8” value is listed as “M (moderate solubility if the threshold concentration is 31.3 μM to 250 μM)”; the “turbidity threshold (L, M, H) 7.4” value was “M (moderate solubility if the threshold concentration is 31.3 μM to 250 μM)”. At CYP3A4(BQ), the IC50 is more than 10 µM. The concentration for half-maximal inhibition (IC50) on c-Kit kinase is less than 0.1 µM.

On to `CCc1ccc(Nc2ccc(C(=O)c3c[nH]c4ncnc(NCC(C)C)c34)c(F)n2)cn1` [Compound P-4121, [6-[(6-ethyl-3-pyridyl)amino]-2-fluoro-3-pyridyl]-[4-(isobutylamino)-7H-pyrrolo[2,3-d]pyrimidin-5-yl]methanone], for which, in data set [1], the “turbidity threshold (L, M, H) 1.4” value is on record as “H (high solubility if the threshold concentration is >250 μm)”; the “turbidity threshold (L, M, H) 4.5” value is listed as “H (high solubility if the threshold concentration is >250 μm)”; the “turbidity threshold (L, M, H) 6.8” value is on record as “H (high solubility if the threshold concentration is >250 μm)”; the “turbidity threshold (L, M, H) 7.4” value is “H (high solubility if the threshold concentration is >250 μm)”. On CYP3A4(BQ), the concentration for half-maximal inhibition (IC50) is more than 10 µM. Moreover, the half-inhibitory concentration (IC50) on c-Kit kinase is less than 0.01 µM.

`CCCNc1ncnc2[nH]cc(C(=O)c3ccc(Nc4ccc(CC)nc4)nc3F)c12` [Compound P-4122, [6-[(6-ethyl-3-pyridyl)amino]-2-fluoro-3-pyridyl]-[4-(propylamino)-7H-pyrrolo[2,3-d]pyrimidin-5-yl]methanone]: in data set [1], the “turbidity threshold (L, M, H) 1.4” value was “H (high solubility if the threshold concentration is >250 μm)”; the “turbidity threshold (L, M, H) 4.5” value is given as “L (low solubility if the threshold concentration is <31.3 μM)”; the “turbidity threshold (L, M, H) 6.8” value was “M (moderate solubility if the threshold concentration is 31.3 μM to 250 μM)”; the “turbidity threshold (L, M, H) 7.4” value is listed as “L (low solubility if the threshold concentration is <31.3 μM)”. The IC50 on CYP3A4(BQ) is more than 10 µM. The concentration for half-maximal inhibition (IC50) at c-Kit kinase was less than 0.01 µM.

On to `CCNc1ncnc2[nH]cc(C(=O)c3ccc(Nc4ccc(CC)nc4)nc3F)c12` [Compound P-4123, [4-(ethylamino)-7H-pyrrolo[2,3-d]pyrimidin-5-yl]-[6-[(6-ethyl-3-pyridyl)amino]-2-fluoro-3-pyridyl]methanone], for which, in data set [1], the “turbidity threshold (L, M, H) 1.4” value is given as “H (high solubility if the threshold concentration is >250 μm)”; the “turbidity threshold (L, M, H) 4.5” value is reported as “L (low solubility if the threshold concentration is <31.3 μM)”; the “turbidity threshold (L, M, H) 6.8” value is given as “L (low solubility if the threshold concentration is <31.3 μM)”; the “turbidity threshold (L, M, H) 7.4” value is “L (low solubility if the threshold concentration is <31.3 μM)”. Besides, the concentration for half-maximal inhibition (IC50) on CYP3A4(BQ) was more than 10 µM. The half-inhibitory concentration (IC50) on c-Kit kinase was less than 0.01 µM.

As to `CCc1ccc(Nc2ccc(C(=O)c3c[nH]c4ncnc(NC)c34)c(F)n2)cn1` [Compound P-4124, [6-[(6-ethyl-3-pyridyl)amino]-2-fluoro-3-pyridyl]-[4-(methylamino)-7H-pyrrolo[2,3-d]pyrimidin-5-yl]methanone], in data set [1], the “turbidity threshold (L, M, H) 1.4” value is reported as “M (moderate solubility if the threshold concentration is 31.3 μM to 250 μM)”; the “turbidity threshold (L, M, H) 4.5” value is listed as “L (low solubility if the threshold concentration is <31.3 μM)”; the “turbidity threshold (L, M, H) 6.8” value was “L (low solubility if the threshold concentration is <31.3 μM)”; the “turbidity threshold (L, M, H) 7.4” value is “M (moderate solubility if the threshold concentration is 31.3 μM to 250 μM)”. In addition, the IC50 on CYP3A4(BQ) was more than 10 µM. For the same compound, the concentration for half-maximal inhibition (IC50) at c-Kit kinase is less than 0.01 µM.

`CCc1ccc(Nc2ccc(C(=O)c3c[nH]c4ncnc(NC5CC5)c34)c(F)n2)cn1` [Compound P-4125, [4-(cyclopropylamino)-7H-pyrrolo[2,3-d]pyrimidin-5-yl]-[6-[(6-ethyl-3-pyridyl)amino]-2-fluoro-3-pyridyl]methanone]: in data set [1], the “turbidity threshold (L, M, H) 1.4” value is recorded as “H (high solubility if the threshold concentration is >250 μm)”; the “turbidity threshold (L, M, H) 4.5” value was “L (low solubility if the threshold concentration is <31.3 μM)”; the “turbidity threshold (L, M, H) 6.8” value was “L (low solubility if the threshold concentration is <31.3 μM)”; the “turbidity threshold (L, M, H) 7.4” value is recorded as “L (low solubility if the threshold concentration is <31.3 μM)”. Besides, on CYP3A4(BQ), the half-maximal inhibitory concentration (IC50) is more than 10 µM. Besides, the IC50 at c-Kit kinase is less than 0.1 µM.

As for `Fc1cc(Cc2c[nH]c3ncnc(NC4CC4)c23)cnc1NC1CCC(F)(F)CC1` [Compound P-4127, N-cyclopropyl-5-[[6-[(4,4-difluorocyclohexyl)amino]-5-fluoro-3-pyridyl]methyl]-7H-pyrrolo[2,3-d]pyrimidin-4-amine], in data set [1], the “turbidity threshold (L, M, H) 1.4” value is on record as “H (high solubility if the threshold concentration is >250 μm)”; the “turbidity threshold (L, M, H) 4.5” value is “M (moderate solubility if the threshold concentration is 31.3 μM to 250 μM)”; the “turbidity threshold (L, M, H) 6.8” value is given as “M (moderate solubility if the threshold concentration is 31.3 μM to 250 μM)”; the “turbidity threshold (L, M, H) 7.4” value is recorded as “M (moderate solubility if the threshold concentration is 31.3 μM to 250 μM)”. For the same compound, on CYP3A4(BQ), the concentration for half-maximal inhibition (IC50) was less than 5 µM. For the same compound, at c-Kit kinase, the half-inhibitory concentration (IC50) was less than 1 µM.

As a reminder, the IC50 is the concentration that inhibits the measured activity by half.

Source of the values: patent US8901118B2, “Compounds and methods for kinase modulation, and indications therefor” (Plexxikon Inc., priority 2010, dated 2014).
